Measured values: ChEMBL document CHEMBL3352575, “Synthesis, in vitro and in vivo antitumor activity of pyrazole-fused 23-hydroxybetulinic acid derivatives” (Bioorg Med Chem Lett, 2015)

Experiments:
H22 [1] = experiment: Antitumor activity against […] H22 cells […] in ICR mouse assessed as tumor growth inhibition at 30 mg/kg, ip administered 7 days post inoculation measured at day 25 of tumor transplantation; type: functional; conditions: route intraperitoneal
B16 [2] = experiment: Antitumor activity against mouse B16 cells allografted in ICR mouse assessed as tumor growth inhibition at 30 mg/kg, ip administered 7 days post inoculation measured at day 25 of tumor transplantation; type: functional; conditions: route intraperitoneal
B16 [3] = experiment: Antiproliferative activity against mouse B16 cells after 72 hrs by MTT assay; type: functional, cell-based; conditions: B16, 72 h
HeLa = experiment: Antiproliferative activity against human HeLa cells after 72 hrs by MTT assay; type: functional, cell-based
[4] = Antiproliferative activity against human SF763 cells after 72 hrs by MTT assay; type: functional, cell-based; conditions: SF763, 72 h
[5] = Antiproliferative activity against human HL60 cells after 72 hrs by MTT assay; type: functional, cell-based; conditions: HL-60, 72 h
[6] = Antiproliferative activity against human Bel7402 cells after 72 hrs by MTT assay; type: functional, cell-based; conditions: Bel-7402, 72 h
H22 [7] = experiment: Antitumor activity against human H22 cells xenografted in ICR mouse assessed as tumor growth inhibition at 30 mg/kg, iv administered 7 days post inoculation measured at day 25 of tumor transplantation; conditions: read-out: INH
B16 [8] = experiment: Antitumor activity against mouse B16 cells allografted in ICR mouse assessed as tumor growth inhibition at 30 mg/kg, iv administered 7 days post inoculation measured at day 25 of tumor transplantation; type: functional

C=C(C)[C@@H]1CC[C@]2(C(=O)O)CC[C@]3(C)[C@H](CC[C@@H]4[C@@]5(C)CC[C@H](O)[C@@](C)(CO)[C@@H]5CC[C@]43C)[C@@H]12
inhibition in vivo at 30 mg/kg (H22 [1]): 27.8% | inhibition in vivo at 30 mg/kg (B16 [2]): 32.4%

C=C(C)[C@@H]1CC[C@]2(C(=O)NCCN)CC[C@]3(C)[C@H](CC[C@@H]4[C@@]5(C)Cc6c[nH]nc6[C@@](C)(COC(C)=O)[C@@H]5CC[C@]43C)[C@@H]12
inhibition in vivo at 30 mg/kg (H22 [1]): 51.2% | IC50 (B16 [3]): 5.58 µM | IC50 (HeLa): 8.97 µM | IC50 [4]: 6.13 µM | IC50 [5]: 8.04 µM | IC50 [6]: 8.12 µM | inhibition in vivo at 30 mg/kg (B16 [2]): 58.9%

O=P1(N(CCCl)CCCl)NCCCO1 (stereo unspecified) [CYCLOPHOSPHAMIDE ANHYDROUS]
inhibition in vivo at 30 mg/kg (H22 [7]): 53.7%

O=c1[nH]cc(F)c(=O)[nH]1 [FLUOROURACIL]
IC50 (B16 [3]): 10.5 µM | IC50 (HeLa): 9.09 µM | IC50 [4]: 9.34 µM | IC50 [5]: 10.5 µM | IC50 [6]: 11.8 µM | inhibition in vivo at 30 mg/kg (B16 [8]): 70.3%
